In patent US20250099475A1, “METHODS OF TREATING HYPERTENSION BY PERIODIC SUPPRESSION OF ALDOSTERONE SYNTHASE” (Mineralys Therapeutics, Inc., priority 2022, published 2025):
Read-outs that look alike come from different tables or passages of the source.

Assays:
[1] = Phase 1 part 1 single ascending dose: pharmacokinetics; format: in vivo, human; conditions: for half-life / Tmax: male, human, plasma, oral
Procedure: A 4-part, Phase 1 randomized, double-blind, placebo-controlled, first-in-human study was performed to determine the safety, tolerability, PK, and PD of single ascending doses (SADs; part 1) and multiple ascending doses (MADs; part 2) of Compound A HBr in healthy participants. The study also assessed whether there were sex (part 3) and age-related (part 4) effects on the PK of a single dose of Compound A HBr. The study was approved by the local independent ethics committee; the BEBO foundation in Assen, Netherlands; and the Central Committee on Research Involving Human Subjects in The Hague, Netherlands; and conducted according to the provisions of the Declaration of Helsinki. Written informed consent was obtained from each study participant before conducting any protocol-related procedures.
In part 1, Compound A HBr or placebo was administered to 64 healthy Caucasian men aged 18 to 55 years (inclusive) in 8 cohorts of 8 participants each. In each cohort, 6 participants were randomized to receive a single dose of Compound A HBr and 2 participants were randomized to receive matching placebo. All cohorts included 2 sentinel participants of whom 1 received Compound A HBr and 1 received matching placebo. The remaining 6 participants, of whom 5 received Compound A HBr and 1 received placebo, were dosed ≥24 hours following the sentinel participants. The dosing cohorts were 5, 10, 20, 50, 100, 200, 400, and 800 mg. Doses were administered in an ascending order per cohort, with a minimum 10-day interval between consecutive dose levels. Participants received a single dose of Compound A HBr or placebo in the fasted state.
Plasma PK parameters were derived by non-compartmental analysis using WinNonlin® (version 6.3). Dose proportionality was assessed using the power model with AUC0-∞, AUC0-last, and Cmax for part 1 (SAD) and with AUC0-last, AUC0-∞, AUC0-τ, and Cmax for part 2 (MAD). A linear model (ln(Y)=α+β×ln(X), where Y is the pharmacokinetic parameter and X is the dose) was used to fit the power model, after log-transformation of the parameters. Dose proportionality was concluded if the 95% confidence interval (CI) for slope (β) included the value 1.
An analytical method for the determination of Compound A in human plasma (dipotassium ethylenediaminetetraacetic acid [K2-EDTA]) and human urine using solid-phase extraction and high-performance liquid chromatography with mass spectrometric detection was successfully validated over the concentration range 0.1000 ng/mL (lower limit of quantification) to 100.0 ng/mL prior to initiation of the clinical trial. […] For all other analytes, validated quantitative measurement methods were used.

[2] = target: T1, human CYP 11B1 (hCYP11B1) (Homo sapiens, UniProt P15538); assay: Assay of hCYP11B1 inhibition (11-deoxycortisol to cortisol); format: biochemical; conditions: mitochondrial fraction of V79 cells stably expressing hCYP11B1; substrate 11-deoxycortisol; read-out: Inhibition constant (Ki) hCYP11B1
T1 construct: expressed in transfected cells; host or cells: V79 cells (mitochondrial fraction)
T1 sequence (P15538 25-503): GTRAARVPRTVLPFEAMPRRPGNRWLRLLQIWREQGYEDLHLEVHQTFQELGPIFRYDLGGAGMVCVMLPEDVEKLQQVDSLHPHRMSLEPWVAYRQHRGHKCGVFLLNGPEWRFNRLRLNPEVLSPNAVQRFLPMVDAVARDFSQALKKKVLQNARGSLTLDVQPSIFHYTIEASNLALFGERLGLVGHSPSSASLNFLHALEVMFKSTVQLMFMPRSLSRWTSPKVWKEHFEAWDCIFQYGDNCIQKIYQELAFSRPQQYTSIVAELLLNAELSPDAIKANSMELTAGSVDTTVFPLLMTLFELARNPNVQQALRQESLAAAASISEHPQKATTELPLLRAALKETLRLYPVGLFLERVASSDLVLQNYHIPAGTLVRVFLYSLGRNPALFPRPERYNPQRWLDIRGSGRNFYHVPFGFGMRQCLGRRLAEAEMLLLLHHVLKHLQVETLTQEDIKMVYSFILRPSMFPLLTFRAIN
Procedure: The inhibitory effects of Compound A on human CYP 11B1 (hCYP11B1) and human CYP11B2 (hCYP11B2) enzyme activity were evaluated by determining the enzymatic conversion rates of 11-deoxycortisol to cortisol for hCYP11B1 and 11-DOC to aldosterone for hCYP11B2.

[3] = tested on: cardiovascular system; assay: Cardiovascular system in halothane-anesthetized dogs; format: in vivo, dog; conditions: intravenous infusion up to 3-mg/kg as free base; non-GLP
Procedure: Effects of Compound A on the cardiovascular system were evaluated with halothane-anesthetized dogs. Doses of 0, 0.3, 1, and 3 mg/kg of Compound A as free base were infused intravenously in ascending order to the same 3 male dogs at 0.1 mL/kg/min for 10 minutes cumulatively with 30 minutes interval between the start of infusion. Heart rate, systolic, diastolic, and mean blood pressure, cardiac output, total peripheral resistance, left ventricular end-diastolic pressure, maximum upstroke velocity of the left ventricular pressure, and electrocardiogram parameters (PR interval, QRS duration, QT interval, and QTcV) were evaluated.

[4] = tested on: 46 targets in receptor binding and enzyme inhibition studies; assay: Pan-receptor screening
Excerpt: Compound A, at a concentration of 10 μmol/L, was screened against 46 targets in receptor binding and enzyme inhibition studies to determine if Compound A interacted with any off-target enzymes or receptors.

CC(=O)N[C@H]1CC[C@H](NC(=O)CN2CCN(c3nncc(-c4ccc(C)cc4)n3)CC2)CC1 [Compound A HBr]
half-life ([1]; single 5 mg, fasted, read-out: T 1/2, mean (SD) (converted)): 8 h | half-life ([1]; single 10 mg, fasted, read-out: T 1/2, mean (SD) (converted)): 8 h | Tmax ([1]; single 10 mg, fasted, read-out: Tmax, median and range): 1.25 h | Tmax ([1]; single 200 mg, fasted, read-out: Tmax, median and range): 1.25 h | Tmax ([1]; single 400 mg, fasted, read-out: Tmax, median and range): 1.25 h | half-life ([1]; single 800 mg, fasted, read-out: T 1/2, mean (SD) (converted)): 11 h | Tmax ([1]; single doses 5 to 800 mg, read-out: Median Tmax values): 1 to 1.5 h | half-life ([1]; single doses 5 to 800 mg, read-out: mean t1/2 values): 7.92 to 10.5 h | AUC0-inf, mean (SD) ([1]; single 5 mg, fasted): 231 (25) ng × h/mL | Cmax, mean (SD) ([1]; single 5 mg, fasted): 37 (7) ng/mL | Tmax, median and range ([1]; single 5 mg, fasted): 1.5 (1-3) h | AUC0-inf, mean (SD) ([1]; single 10 mg, fasted): 451 (46) ng × h/mL | Cmax, mean (SD) ([1]; single 10 mg, fasted): 76 (20) ng/mL | AUC0-inf, mean (SD) ([1]; single 20 mg, fasted): 768 (182) ng × h/mL | Cmax, mean (SD) ([1]; single 20 mg, fasted): 141 (76) ng/mL | Tmax, median and range ([1]; single 20 mg, fasted): 1.5 (1-3) h | AUC0-inf, mean (SD) ([1]; single 50 mg, fasted): 2155 (258) ng × h/mL | Cmax, mean (SD) ([1]; single 50 mg, fasted): 573 (206) ng/mL | T 1/2, mean (SD) ([1]; single 50 mg, fasted): 9 (2) h | Tmax, median and range ([1]; single 50 mg, fasted): 1 (0.5-3) h | AUC0-inf, mean (SD) ([1]; single 100 mg, fasted): 5366 (493) ng × h/mL | Cmax, mean (SD) ([1]; single 100 mg, fasted): 1211 (248) ng/mL | Tmax, median and range ([1]; single 100 mg, fasted): 1.5 (1-3) h | AUC0-inf, mean (SD) ([1]; single 200 mg, fasted): 10645 (3486) ng × h/mL | Cmax, mean (SD) ([1]; single 200 mg, fasted): 2848 (1015) ng/mL | T 1/2, mean (SD) ([1]; single 200 mg, fasted): 10 (4) h | AUC0-inf, mean (SD) ([1]; single 400 mg, fasted): 17257 (2907) ng × h/mL | Cmax, mean (SD) ([1]; single 400 mg, fasted): 4455 (862) ng/mL | AUC0-inf, mean (SD) ([1]; single 800 mg, fasted): 29331 (3623) ng × h/mL | Cmax, mean (SD) ([1]; single 800 mg, fasted): 7708 (1617) ng/mL | Tmax, median and range ([1]; single 800 mg, fasted): 1.5 (0.5-4) h | dose proportionality of AUC0-last and AUC0-∞ ([1]; single doses 5 to 800 mg): dose-proportional increase

CC(=O)N[C@H]1CC[C@H](NC(=O)CN2CCN(c3nncc(-c4ccc(C)cc4)n3)CC2)CC1 [Compound A]
Ki [2]: 475 nM | effects on the cardiovascular system [3]: no effects | inhibition of 46 primary molecular target receptors or enzymes ([4]; 10 μmol/L): did not substantially inhibit | IC50 ([4]; any of 46 targets, read-out: IC50 for off-target receptors or enzymes): > 10000 nM
